Laboratory results reported in patent US5840690A, “Regulation of cell proliferation and differentation using peptides” (priority 1995, dated 1998).

Legend:
[1] = tested on: canine adenylate cyclase system; conditions: cited from earlier work
[2] = tested on: psoriasis; conditions: provided either orally or topically; cited from earlier work
[3] = tested on: cultured human keratinocytes; test: Keratinocyte culture: counts of total cells, basal cells and cornified envelopes; format: cell-based; conditions: for total number of basal cells: one week of dosing; for proliferation and terminal differentiation of cultured human keratinocytes (conclusion from the results): peptide by itself
Experimental: Keratinocytes were grown in culture as follows. NIH 3T3 cells were plated at 0.5×10^5 cells per 35-mm tissue-culture dish, and two days later were lethally irradiated with a cobalt-60 source (5000 rads). Keratinocytes were obtained from neonatal foreskin after overnight trypsinization at 4° C. and treatment with 0.02% EDTA. Keratinocytes were plated in 2 ml of serum-free medium per dish on the lethally irradiated 3T3 cells. Each experiment was performed on primary or secondary keratinocyte cultures obtained from different skin samples.
In addition, 1,25-(OH)2 D3 was tested, alone and in combination with PTH (7-34), and PTH (1-34) and PTH (7-34) were tested together.
Beginning at one week in culture, groups of triplicate plates of keratinocytes were incubated with the aforementioned compounds or vehicle alone. After one week of dosing, the medium was removed from each culture and centrifuged, and the pellet was resuspended for the counting of the desquamated floater cells. A hemacytometer was used to count the different cell types under a phase-contrast microscope. The attached cells were then trypsinized for 30-40 min with 0.1 EDTA and 0.1% trypsin and then neutralized with medium. The keratinocytes were pelleted and resuspended in a known volume of medium. Duplicate aliquots were taken for counting the basal (small, rounded) and squamous (larger, irregular-shaped, flattened) cells. The remaining cells were pelleted and treated with 10 mM Tris-HCl (pH 7.4) with 1% beta-mercaptoethanol and 1% sodium dodecyl sulfate (SDS) at room temperature for 10 min. Only cells with cornified envelopes were present after this treatment.
Each culture was thus evaluated for its total cell content, number of basal cells, and cornified envelopes, as described above.

[4] = tested on: wounds made through the skin with a 6 mm dermal biopsy punch; test: In vivo skin punch assay; parameters: species or system Sprague-Dawley rats; conditions: rats, 2.0 μg topically in normal saline, immediately after biopsy and each day for 3 days, FIG. 8
Experimental: Male Sprague-Dawley rats were anesthetized by intraperitoneal injection of sodium pentobarbital, their dorsal skin shaved, and wounds made through the skin with a 6 mm dermal biopsy punch. Immediately after the biopsy, and each subsequent day for 3 days, groups of rats received topically 2.0 μg of human PTH (1-34) in normal saline or human PTH (7-34) in normal saline; a control group received normal saline without peptide. Four rats from each group were killed by asphyxiation in a chamber of carbon dioxide, and the extent of wound healing was evaluated as follows. Wounds were photographed with the wound surface perpendicular to the axis of the lens. After development of the film, wound images were projected on to paper at a fixed distance, traced with a pencil, and cut out with sharp scissors. The relative sizes of the wounds were assessed by weighing the cut-out paper tracings. Percent healing was calculated from the average decrease in wound area for each group.

[5] = tested on: PTH-mediated elevation of plasma calcium; conditions: cited from earlier work
[6] = PTH (7-34) together with the agonist
[7] = peptide alone at 10^-8 M and 10^-7 M

In the case of “Parathyroid Hormone (1-34), Rat [Rat PTH (1-34)]”, the “activity relative to bovine PTH (1-34)” value [1] is listed as 2-4 fold and the “activity relative to human PTH (1-34)” value [1] is listed as 8-10 fold.
For `C=C1/C(=C\C=C2/CCC[C@]3(C)[C@@H]([C@H](C)CC[C@@H](O)C(C)C)CC[C@@H]23)C[C@@H](O)C[C@@H]1O` [1,24-dihydroxyvitamin D3], the “value in the treatment of psoriasis” value [2] is given as “of value in the treatment of psoriasis”.
For `CSCC[C@H](NC(=O)[C@H](CO)NC(=O)[C@H](CO)NC(=O)[C@H](CC(C)C)NC(=O)[C@H](Cc1c[nH]cn1)NC(=O)[C@H](CCCCN)NC(=O)CNC(=O)[C@H](CC(C)C)NC(=O)[C@H](CC(N)=O)NC(=O)[C@H](Cc1c[nH]cn1)NC(=O)[C@H](CCSC)NC(=O)[C@@H](N)Cc1ccccc1)C(=O)N[C@@H](CCC(=O)O)C(=O)N[C@@H](CCCNC(=N)N)C(=O)N[C@H](C(=O)N[C@@H](CCC(=O)O)C(=O)N[C@@H](Cc1c[nH]c2ccccc12)C(=O)N[C@@H](CC(C)C)C(=O)N[C@@H](CCCNC(=N)N)C(=O)N[C@@H](CCCCN)C(=O)N[C@@H](CCCCN)C(=O)N[C@@H](CC(C)C)C(=O)N[C@@H](CCC(N)=O)C(=O)N[C@@H](CC(=O)O)C(=O)N[C@H](C(=O)N[C@@H](Cc1c[nH]cn1)C(=O)N[C@@H](CC(N)=O)C(=O)N[C@@H](Cc1ccc(O)cc1)C(N)=O)C(C)C)C(C)C` [PTH (7-34), [Tyr^34] bovine PTH (7-34) amide], the “keratinocyte antiproliferative and terminal differentiation-inducing activities of 1,25(OH)2 D3” value ([3]; PTH (7-34) against 1,25(OH)2 D3) was “blocks”, the “antiproliferative and differentiation-inducing activities of PTH (1-34) and CFF (1-34) (antagonist)” value ([3]; PTH (7-34) against PTH (1-34) and CFF (1-34)) was “blocks” and the “response to 1,25(OH)2 D3 (cell numbers)” value ([3]; PTH (7-34) at 10^-7 M co-incubated with 1,25(OH)2 D3 at 10^-8 M) was “significantly decreased the response”. The “effect of PTH (1-34) and CFF (1-34) on total number of cells and total number of basal cells” value ([3]; PTH (7-34) co-incubated with hPTH (1-34) or CFF (1-34)) was “inhibited the effect”, the “antiproliferative and differentiation-inducing activities of each of 1,25(OH)2 D3, PTH (1-34), and CFF (1-34) (conclusion)” value [3, 6] was “can block” and the “effect of 1,25(OH)2 D3, PTH (1-34), and CFF (1-34) on cornified envelope development” value [3, 6] was “inhibited the effect”. For the same compound, the “total number of cornified envelopes, percent of control” value [3, 7] was “no effect”, the “total number of basal cells” value [3, 7] was “no effect” and the “proliferation and terminal differentiation of cultured human keratinocytes (conclusion from the results)” value [3] was “substantially no effect”. The “wound healing (percent healing from decrease in wound area)” value [4] was “biologically effective in enhancing wound healing”, the PTH-like agonist activity ([5]; rat, in vivo) was “devoid of PTH-like agonist activity” and the “PTH-mediated elevation of plasma calcium” value ([5]; thyroparathyroidectomized rats in vivo) was “can inhibit”.
With `CC[C@H](C)[C@H](NC(=O)[C@H](CCC(=O)O)NC(=O)[C@H](CO)NC(=O)[C@@H](NC(=O)[C@@H](N)CO)C(C)C)C(=O)N[C@@H](CCC(N)=O)C(=O)N[C@@H](CC(C)C)C(=O)N[C@@H](CCSC)C(=O)N[C@@H](Cc1c[nH]cn1)C(=O)N[C@@H](CC(N)=O)C(=O)N[C@@H](CC(C)C)C(=O)NCC(=O)N[C@@H](CCCCN)C(=O)N[C@@H](Cc1c[nH]cn1)C(=O)N[C@@H](CC(C)C)C(=O)N[C@@H](CC(N)=O)C(=O)N[C@@H](CO)C(=O)N[C@@H](CCSC)C(=O)N[C@@H](CCC(=O)O)C(=O)N[C@@H](CCCNC(=N)N)C(=O)N[C@H](C(=O)N[C@@H](CCC(=O)O)C(=O)N[C@@H](Cc1c[nH]c2ccccc12)C(=O)N[C@@H](CC(C)C)C(=O)N[C@@H](CCCNC(=N)N)C(=O)N[C@@H](CCCCN)C(=O)N[C@@H](CCCCN)C(=O)N[C@@H](CC(C)C)C(=O)N[C@@H](CCC(N)=O)C(=O)N[C@@H](CC(=O)O)C(=O)N[C@H](C(=O)N[C@@H](Cc1c[nH]cn1)C(=O)N[C@@H](CC(N)=O)C(=O)N[C@@H](Cc1ccccc1)C(=O)O)C(C)C)C(C)C` [PTH (1-34), Parathyroid Hormone (1-34), Human] the “growth of human cultured keratinocytes” value ([3]; 10^-7 and 10^-8 M) was “inhibits growth”, the “terminal differentiation of human cultured keratinocytes” value ([3]; 10^-7 and 10^-8 M) was “induces terminal differentiation” and the “total number of cornified envelopes, percent of control” value ([3]; compound alone, FIGS. 6 and 7) was “increased, in a dose-dependent manner”. For the same compound, the “total number of basal cells” value [3, 7] was “significantly decreased”, the “proliferation and terminal differentiation of cultured human keratinocytes (conclusion from the results)” value [3] was “biologically effective in inhibiting the proliferation of cultured human keratinocytes and inducing terminal differentiation” and the “wound healing (percent healing from decrease in wound area)” value [4] was “biologically effective in enhancing wound healing”. The “wound healing (percent healing from decrease in wound area)” value ([4]; listed as human PTH (1-34)) was “enhance wound healing”.
